Source: patent US12613246B2, “Fluorescent probe and protein labeling method” (SHANGHAI GLORY CAPITAL MANAGEMENT LTD., priority 2018, dated 2026)

Assays:
[1] = Fluorescence of free probe before reaction with the protein tag; format: physicochemical
Method: (§1) Mix the probe with corresponding protein tag to obtain the mixed sample, wherein the final concentration of probe in the mixed sample is 5 μM, and the final concentration of protein tags is 10 μM; hatch the mixed sample at 37° C. for 1 h, and detect its fluorescence intensity change by using the fluorescence spectrophotometer.
(§2) According to the free probe quantum yield shown in Table 1, the fluorescence of the probes of and reference probes are extremely low before the reaction with the protein tag, and is close to the background fluorescence level of PBS buffer solution. […] However, according to the quantum yield of the binding protein tag, the fluorescence signal enhancement can be detected in the corresponding excitation emission channel after the probe reacts with the protein tag with hundreds to one thousand fold fluorescence activation times and very high brightness; the reference probes also can activate fluorescence, but the fluorescence quantum yield and brightness after activation are quite low.

CLIP protein tag = test: Fluorescence activation after mixing probe with corresponding protein tag (CLIP); format: biochemical; details: probe 5 μM, protein tag 10 μM, 37° C., 1 h
Method: as §1, §2

[2] = Fluorescence emission spectra of probes in glycerol and methanol (viscosity response); format: physicochemical; details: maximum excitation wavelength of each probe; for Fluorescence ratio in glycerol methanol: 1×10^−5 M; for Emission wavelength: medium not given
Description: Respectively dissolve Probe 1-32 and Reference Probes BG-CCVJ and BG-Gly-CCVJ in dimethyl sulfoxide so as to prepare a mother liquid with a concentration of 1×10^−2M; add the mother liquid to glycerol and methanol respectively and mix them well to prepare a solution with a concentration of 1×10^−5 M. Based on different probes, the fluorescence emission spectrum of each probe are detected under the same conditions with maximum excitation wavelength of each probe.
The probes are sensitive to the change of viscosity and have viscosity response.

SNAP protein tag [3] = test: Fluorescence activation after mixing probe with corresponding protein tag (SNAP); format: biochemical; details: probe 5 μM, protein tag 10 μM, 37° C., 1 h
Method: as §1, §2

Hela cells [4] = test: Labeling of Hela cells expressing protein tags versus Hela-WT cells, confocal microscopy; format: cell-based; details: probe 5 μM, 37° C., 2 h
Method: Take Hela cells as an example to detect the labeling effect of the compounds in mammalian cells. Hela cells and Hela-WT cells (Hela primitive cells without expressing protein tags), which can express protein tags stably, are planted in a glass bottom 96-well plate of 14 mm for 10 h. Add Probe 16, Probe 17 and Probe 18 into a culture medium respectively and dilute them to 5 μM. Hatch the cells in a carbon dioxide incubator at 37° C. for 2 h. Detect the fluorescence changes of labeled cells by using Leica TPS-8 confocal microscopy.

Hela cells [5] = test: Labeling of protein tags located in different organelles of Hela cells without washing; format: cell-based; details: probe 0.2 μM, 2 h
Method: Plant Hela cells (5000 cells/well) in a glass bottom plate of 96-well for 14 h, and then use Lipo2000 kit to transfect protein tags to locate plasmids in different organelles. After 24 h of transfection, remove the original culture medium, wash the culture medium twice with phenol free red DMEM culture medium, and hatch the cells with phenol free red medium containing probe (0.2 μM) for 2 h, and detect the effect of cell labeling by using Leica TCS-8 confocal microscopy imaging.

Hela cells [6] = test: Two-colour orthogonal labeling of CLIP-histone and mito-SNAP in the same Hela cell; format: cell-based; details: Probe 16 and Probe 9, 0.2 μM, 2 h, without washing
Method: Plant Hela cells (5000 cells/well) in a glass bottom plate of 96-well for 14 h; transfect pcdna3.1-CLIP-histone (CLIP protein labeled chromosome localization plasmid) and pcdna3.1-mito-SNAP (SNAP protein labeled […] localization plasmid) by using Lipo2000 kit (0.1 μg/well). After 24 h of transfection, remove the original culture medium, and wash the culture medium twice with phenol free red DMEM culture medium, and hatch the cells respectively with phenol free red medium containing Probe 16 and Probe 9 (0.2 μM) for 2 h, and detect the effect of cell labeling by using Leica TCS-8 confocal microscopy imaging.

SNAP protein tag [7] = test: Labeling of SNAP protein tag expressed in the liver of living mice; format: in vivo; details: 0.4 μM in 200 μL PBS intravenously, 6 h
Method: Firstly, introduce the plasmid pcdna3.1-SNAP (sample group) with SNAP protein expressing and the contrastive plasmid pcdna3.1-CAT (contrastive group) without SNAP protein expressing into mice. In this method, the plasmid is dissolved in a large volume of solution and rapidly injected into mice intravenously. The plasmid is absorbed by mouse liver, and then express the target protein. After 24 h of plasmid injection, inject the Probe 16 (0.4 μM) dissolved in 200 μL of PBS into mice intravenously to label SNAP protein tag. After 6 h, dissect the mice, and detect liver fluorescence differences by using Kodak multispectral vivo imaging system.

SNAP-IAA17-H2B = test: Probe fluorescence during IAA-induced protein degradation (AID system) in Hela cells; format: cell-based; details: probe 1 μM; 140 min after IAA added
Method: In order to verify that the fluorescence activation of the probe is related to the existence of protein, SNAP protein of mammalian cells is taken as an example, and AID degradation system is an example of detecting the fluorescence changes of probes combined with SNAP after protein degradation in Hela cells. Firstly, plant Hela cells (20000/cm^2) in a glass bottom cell culture medium of 20 mm for 14 h, and then transect the plasmids pcdna3.1-TIR1 and pcdna3.1-SNAP-IAA17-H2B by means of Lipofectmain2000 transfection reagent (Invertogen Co.). After the cells are transfected for 24 h, replace the cells labeled by the original cell culture medium with phenol red DMEM culture medium containing Probe 16 (1 μM), and hatch the cee sample in a carbon dioxide incubator at 37° C. for 1 h. After labeling, detect the fluorescence signal of the labeled cells by using Leica SP8 laser confocal microscopy imaging, and add indoleacetic acid (IAA) to induce the protein degradation of SNAP-IAA17-H2B, and detect the changes of cell fluorescence during protein degradation.

| Compound | Quantum yield of free probe [1] | Quantum yield of binding protein tags (CLIP protein tag) | Fluorescence ratio in glycerol methanol [2] | Emission wavelength [2] [nm] | Quantum yield of binding protein tags (SNAP protein tag [3]) | Fluorescence activation multiple (CLIP protein tag) | Fluorescence activation multiple (SNAP protein tag [3]) | Fluorescence signal in Hela-WT cells (without protein tags) (Hela cells [4]) | Increase of fluorescence signal in cells expressing protein tags (Hela cells [4]) [times] | Display of subcellular organelle structures (Hela cells [5]) | Display of mitochondria and chromosomes in the same cell (Hela cells [6]) | Liver fluorescence intensity of pcdna3.1-SNAP mice relative to the contrastive group (SNAP protein tag [7]) | Liver fluorescence of mice injected with contrastive plasmid pcdna3.1-CAT (SNAP protein tag [7]) | Fluorescence signal of SNAP-IAA17-H2B protein after IAA addition (SNAP-IAA17-H2B) |
| --- | --- | --- | --- | --- | --- | --- | --- | --- | --- | --- | --- | --- | --- | --- |
| CN(CCOC(=O)NCc1ccc(COc2nccc(N)n2)cc1)c1ccc(-c2ccc(/C=C(\C#N)C(=O)OC(C)(C)C)o2)cc1 [Probe 8] | <0.001 | 0.40 | 574 | 630 |  | 555 |  |  |  |  |  |  |  |  |
| CN(CCOC(=O)NCc1ccc(COc2nccc(N)n2)cc1)c1ccc2c(c1)C(C)(C)c1cc(/C=C(\C#N)C(=O)OC(C)(C)C)oc1-2 [Probe 29] | <0.001 | 0.57 | 1024 | 652 |  | 933 |  |  |  |  |  |  |  |  |
| CN(CCOC(=O)NCc1ccc(COc2nccc(N)n2)cc1)c1ccc(-c2ccc(/C=C(\C#N)C(=O)OC(C)(C)C)o2)o1 [Probe 15] | 0.0012 | 0.35 | 301 | 651 |  | 265 |  |  |  |  |  |  |  |  |
| CN(CCOC(=O)NCc1ccc(COc2nccc(N)n2)cc1)c1ccc2nc(/C=C(\C#N)C(=O)OC(C)(C)C)ccc2c1 [Probe 3] | <0.001 | 0.41 | 621 | 550 |  | 473 |  |  |  |  |  |  |  |  |
| CN(CCOC(=O)NCc1ccc(COc2nc(N)nc3[nH]cnc23)cc1)c1ccc(-c2ccc(/C=C(\C#N)C(=O)OC(C)(C)C)o2)cc1 [Probe 5] | <0.001 |  | 821 | 615 | 0.44 |  | 669 |  |  |  |  |  |  |  |
| CN(CCOC(=O)NCc1ccc(COc2nc(N)nc3[nH]cnc23)cc1)c1ccc(-c2ccc(/C=C(\C#N)c3nc4ccccc4s3)o2)o1 [Probe 14] | 0.001 |  | 402 | 725 | 0.35 |  | 498 |  |  |  |  |  |  |  |
| CN(CCOC(=O)NCc1ccc(COc2nccc(N)n2)cc1)c1ccc2c(c1)C(C)(C)c1cc(/C=C(\C#N)c3nc4ccccc4s3)sc1-2 [Probe 26] | <0.001 | 0.46 | 522 | 675 |  | 478 |  |  |  |  |  |  |  |  |
| N#C/C(=C\c1cc2c3c(c1)CCCN3CCC2)C(=O)NCc1ccc(COc2nc(N)nc3[nH]cnc23)cc1 [Reference probe BG-CCVJ, reference compound] | <0.001 |  | 260 | 501 | 0.02 |  | 170 |  |  |  |  |  |  |  |
| CN(CCOC(=O)NCc1ccc(COc2nc(N)nc3[nH]cnc23)cc1)c1ccc2c(c1)C(C)(C)c1cc(/C=C(\C#N)C(=O)OC(C)(C)C)sc1-2 [Probe 16] | <0.001 |  | 1421 | 645 | 0.71 |  | 842 | no corresponding fluorescence signal is detected | ~700 | can clearly display a variety of subcellular organelle structures without washing | clearly and simultaneously display the structure of mitochondria and chromosomes without washing | more than 20 fold | very low | almost negligible |
| CN(CCOC(=O)NCc1ccc(COc2nc(N)nc3[nH]cnc23)cc1)c1ccc(-c2ccc(/C=C(\C#N)c3nc4ccccc4o3)o2)cc1 [Probe 7] | <0.001 |  | 814 | 666 | 0.45 |  | 701 |  |  |  |  |  |  |  |

Now from value to molecule, other results behind:

| Quantum yield of free probe [1] | Quantum yield of binding protein tags (CLIP protein tag) | Fluorescence ratio in glycerol methanol [2] | Emission wavelength [2] [nm] | Quantum yield of binding protein tags (SNAP protein tag [3]) | Compound | Fluorescence activation multiple (CLIP protein tag) | Fluorescence activation multiple (SNAP protein tag [3]) | Fluorescence signal in Hela-WT cells (without protein tags) (Hela cells [4]) | Increase of fluorescence signal in cells expressing protein tags (Hela cells [4]) [times] | Display of subcellular organelle structures (Hela cells [5]) | Display of mitochondria and chromosomes in the same cell (Hela cells [6]) | Liver fluorescence intensity of pcdna3.1-SNAP mice relative to the contrastive group (SNAP protein tag [7]) | Liver fluorescence of mice injected with contrastive plasmid pcdna3.1-CAT (SNAP protein tag [7]) | Fluorescence signal of SNAP-IAA17-H2B protein after IAA addition (SNAP-IAA17-H2B) |
| --- | --- | --- | --- | --- | --- | --- | --- | --- | --- | --- | --- | --- | --- | --- |
| <0.001 | 0.55 | 1125 | 645 |  | CN(CCOC(=O)NCc1ccc(COc2nccc(N)n2)cc1)c1ccc2c(c1)C(C)(C)c1cc(/C=C(\C#N)C(=O)OC(C)(C)C)sc1-2 [Probe 24] | 535 |  |  |  |  |  |  |  |  |
| <0.001 |  | 1123 | 675 | 0.48 | CN(CCOC(=O)NCc1ccc(COc2nc(N)nc3[nH]cnc23)cc1)c1ccc2c(c1)C(C)(C)c1cc(/C=C(\C#N)c3nc4ccccc4s3)sc1-2 [Probe 18] |  | 890 | no corresponding fluorescence signal is detected | ~700 | can clearly display a variety of subcellular organelle structures without washing |  |  |  |  |
| <0.001 |  | 412 | 675 | 0.41 | CN(CCOC(=O)NCc1ccc(COc2nc(N)nc3[nH]cnc23)cc1)c1ccc2c(c1)C(C)(C)C(/C=C(\C#N)C(=O)OC(C)(C)C)=N2 [Probe 30] |  | 503 |  |  |  |  |  |  |  |
| <0.001 |  | 996 | 640 | 0.51 | COCCNC(=O)/C(C#N)=C/c1cc2c(s1)-c1ccc(N(C)CCOC(=O)NCc3ccc(COc4nc(N)nc5[nH]cnc45)cc3)cc1C2(C)C [Probe 19] |  | 670 |  |  |  |  |  |  |  |
| <0.001 |  | 1123 | 665 | 0.44 | COCCNC(=S)/C(C#N)=C/c1cc2c(s1)-c1ccc(N(C)CCOC(=O)NCc3ccc(COc4nc(N)nc5[nH]cnc45)cc3)cc1C2(C)C [Probe 20] |  | 910 |  |  |  |  |  |  |  |
| <0.001 | 0.41 | 782 | 670 |  | CN(CCOC(=O)NCc1ccc(COc2nccc(N)n2)cc1)c1ccc2c(c1)C(C)(C)c1cc(/C=C(\C#N)c3nc4ccccc4o3)sc1-2 [Probe 25] | 421 |  |  |  |  |  |  |  |  |
